Data published in patent US20260083677A1, “ACTIVE INGREDIENT CONTAINING STABILISED SOLID MEDICINAL FORMS AND METHODS FOR THE PRODUCTION THEREOF” (ASTELLAS PHARMA INC., priority 2006, published 2026).

Experiments:
Assay type in all cases: physicochemical
[1] = relative equilibrium moisture content in sealed measuring cell (HygroLab, AWVC cell); conditions: for equilibrium moisture: substances dried at 130° C. for 5 hours (sorbitol: 70° C.)
Description: In connection with the present invention it is, however, very important to have a method furnishing information on the bonding mechanism of water and the strength of the water bond. For this purpose, the so-called “relative equilibrium moisture content” (hereinafter also abbreviated as “equilibrium moisture content”) is measured which forms on the sample in a fully sealed measuring cell at a certain temperature. It is also referred to as equilibrium activity or water activity. The water activity describes the bond strength of water to the active ingredient and/or the individual components of the active ingredient mixture. The measured value for the water activity and/or for the equilibrium moisture (Equilibrium Relative Humidity) has a decisive influence on the chemical stability of a moisture-sensitive active ingredient which is embedded in a solid form, such as granules, a capsule or tablet.
The equilibrium moisture content is the value of the relative humidity in which a hygroscopic product can be stored without a net moisture exchange taking place between the product and its environment. Thus, if a solid form has an equilibrium moisture content of 10% and is stored at a relative humidity of 15%, it absorbs water from its environment, if the relative moisture of the environment is below 10%, the solid form releases water to its environment and becomes even drier.
Unless otherwise specified, the equilibrium moisture content is determined as follows in a thermostated small, tightly sealed measuring cell having a volume of about 50 ml. In the upper part of this measuring cell there is a sensor which can measure the relative moisture content resulting from the evaporation of water from the sample to be measured (the device HygroLab having the AWVC measuring cell of Rotronic company, CH 8303 Bassersdorf, Switzerland, is used) The device is officially calibrated and the measuring inaccuracy is no more than +1% relative humidity or +0.3° C. The measuring accuracy can be repeated at any time with standardized salt solutions as known to the person skilled in the art. The measurement takes place at 25° C.

[2] = drying loss determination on a drying balance; conditions: for drying loss at 130° C./30 min: substances dried at 130° C. for 5 hours (sorbitol: 70° C.)
Description: drying loss in %=mass of the water in the sample/total mass of the sample×100
In order to determine the drying loss of a sample (e.g. a solid medicinal form), the sample is spread over a so-called drying balance and (e.g. by an accurately working infrared radiator) adjusted to the desired temperature, e.g. of 105° C. After a certain time (e.g. after 20 or 30 minutes), the drying loss due to the evaporation of water is directly read off the balance in percent. Unless otherwise specified in this application, the expression “drying loss” refers to the drying loss determined under the conditions of 105° C./30 min. A suitable device for measuring of the drying loss is the Moisture Analyzer HR83 of Mettler-Toledo company (CH-8606 Greifensee, Switzerland). The device or the drying balance is preferably used in a closed interior having an ambient temperature of 20° C. and 20% relative humidity.

[3] = removal of water of crystallization from amoxicilline trihydrate by a drying agent in a tightly sealing glass vessel
Description: In a tightly sealing glass vessel, two Arcellas having 3.5 g trimagnesium dicitrate, dried at 130° C., or having 1.264 g amoxicilline trihydrate (water content 13.1%) are placed side by side and stored at 25° C. After 14 days, the weight of amoxicilline is only 1,105 g whereas the weight of trimagnesium dicitrate is 3.66 g. The amoxicilline released 12.6% water of crystallization which was absorbed by the drying agent. The new drying agent is active such that it virtually split off the entire water of crystallization of amoxicilline (theoretical value: 12.9%).
If this experiment is repeated with the known drying agent silica gel, the antibiotic only loses 0.1% weight after 25 days. This means that the dried trimagnesium dicitrate according to the invention represents an extremely potent drying agent.
Under precisely equal test conditions, the amoxicilline only loses 9.0% with calcium chloride dried at 130° C. after 26 days/25° C.

[4] = weight increase on storage at 25° C./15% relative humidity over 27 days; conditions: substances dried at 130° C. for 5 hours (sorbitol: 70° C.)
Description: The substances were dried at 130° C. for 5 hours (sorbitol: 70° C.) and the drying loss was determined. Then, the weight increase of the individual substances was determined at 25° C./15% relative humidity over 27 days.

[5] = measuring cell thermostated to 25° C.
[6] = after drying at 130° C. for several hours
[7] = measured at 150° C./30 min, after drying at 130° C. for several hours

| Structure (SMILES) | equilibrium moisture content [1, 5] | weight increase (%) with storage at 15% relative humidity/25° C. [4] | equilibrium moisture content [1, 6] | equilibrium moisture [1] | drying loss [2, 7] | drying loss at 130° C./30 min [2] | also measured |
| --- | --- | --- | --- | --- | --- | --- | --- |
| O=S(=O)([O-])[O-].[Na+].[Na+] [Sodium sulfate, reference compound] | 32.7% | – | – | – | – | – | drying loss at 130° C. ([2]; testing period 30 min): 0.06% |
| CC1(C)S[C@@H]2[C@H](NC(=O)[C@H](N)c3ccc(O)cc3)C(=O)N2[C@H]1C(=O)O [amoxicilline, amoxicilline trihydrate] | – | – | – | – | – | – | weight of amoxicilline after storage ([3]; 1.264 g at start, beside 3.5 g dried trimagnesium dicitrate, 14 days, 25° C.): 1,105 g; weight loss ([3]; drying agent calcium chloride dried at 130° C., after 26 days/25° C.): 9.0%; weight loss ([3]; drying agent silica gel, after 25 days): 0.1%; water of crystallization released ([3]; drying agent trimagnesium dicitrate dried at 130° C., 14 days, 25° C.): 12.6% |
| [Ca+2].[Cl-].[Cl-] [calcium chloride] | – | 45.9% | < 0.5% | < 1% | 3.4% | 0.02 | – |
| O=C(O)CC(O)(CC(=O)O)C(=O)O [citric acid] | 63% | – | – | – | – | – | drying loss ([2]; measured at 70° C./30 min): 0.2% |
| OC[C@@H](O)[C@@H](O)[C@H](O)[C@@H](O)CO [sorbitol] | – | 0.1% | – | 9% | – | 0.1 | – |
| O=C([O-])CC(O)(CC(=O)[O-])C(=O)[O-].O=C([O-])CC(O)(CC(=O)[O-])C(=O)[O-].[Mg+2].[Mg+2].[Mg+2] [trimagnesium dicitrate] | – | 8.6% | < 0.5% | < 1% | 1.6% | 0.2 | equilibrium moisture content ([1]; after drying at 130° C. for several hours, at 25° C.): 0.6%; weight of trimagnesium dicitrate after storage ([3]; 3.5 g at start, dried at 130° C., beside amoxicilline trihydrate, 14 days, 25° C.): 3.66 g |
